Assay results published in patent US10208034B2, “Quinoline derivative” (ONO PHARMACEUTICAL CO., LTD., priority 2014, dated 2019).

Tests used:
[1] = target: T1, Ba/F3 Axl (Homo sapiens, UniProt P30530); experiment: Proliferation suppression rate using mouse pro-B cell line (Ba/F3 Axl) stably expressing Axl (CellTiter-Glo); type: cell-based; conditions: Ba/F3 Axl cells, 48 hours, read-out: IC50 value of proliferation suppression, Ba/F3 Axl
T1 sequence (P30530 1-894): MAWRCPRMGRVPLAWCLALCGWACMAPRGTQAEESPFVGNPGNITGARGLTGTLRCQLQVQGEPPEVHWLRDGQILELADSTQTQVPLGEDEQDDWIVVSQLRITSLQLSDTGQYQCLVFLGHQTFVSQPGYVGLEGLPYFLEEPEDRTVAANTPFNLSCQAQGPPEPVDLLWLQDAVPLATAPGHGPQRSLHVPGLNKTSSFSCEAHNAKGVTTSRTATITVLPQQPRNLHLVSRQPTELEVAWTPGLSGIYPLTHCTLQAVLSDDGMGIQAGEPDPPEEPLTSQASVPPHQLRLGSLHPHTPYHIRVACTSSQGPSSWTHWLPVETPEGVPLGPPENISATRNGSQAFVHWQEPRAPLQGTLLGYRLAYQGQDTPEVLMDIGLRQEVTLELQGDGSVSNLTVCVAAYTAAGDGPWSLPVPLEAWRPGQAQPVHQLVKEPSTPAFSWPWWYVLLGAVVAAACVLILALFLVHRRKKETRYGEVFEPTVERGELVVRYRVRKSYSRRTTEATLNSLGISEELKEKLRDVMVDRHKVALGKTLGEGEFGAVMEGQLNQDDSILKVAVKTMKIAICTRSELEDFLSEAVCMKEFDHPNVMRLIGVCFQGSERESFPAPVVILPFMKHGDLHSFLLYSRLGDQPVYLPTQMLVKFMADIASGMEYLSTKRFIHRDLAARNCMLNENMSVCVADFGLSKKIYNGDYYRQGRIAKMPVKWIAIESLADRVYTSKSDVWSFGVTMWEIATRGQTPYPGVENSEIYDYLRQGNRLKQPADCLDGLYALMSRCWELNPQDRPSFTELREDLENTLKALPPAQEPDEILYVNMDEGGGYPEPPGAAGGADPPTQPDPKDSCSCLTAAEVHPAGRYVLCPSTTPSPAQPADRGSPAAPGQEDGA
Description: A 0.1 mmol/L DMSO solution of the test compound was dispensed into a 96-well plate, and a 3-fold dilution series was prepared using DMSO. DMSO solutions of test compounds, having various concentrations, were further 500-fold diluted with a RPMI1640 medium (containing 10% HI-FBS, 1% penicillin) and a diluted solution of the test compound having […] with respect to the final concentration was prepared. In each well of the 96-well plate (BD Biosciences) for measurement, 50 μL of a RPMI medium was added to the Blank group, 50 μL of a RPMI medium containing 0.2% DMSO was added to the medium group, and 50 μL of the diluted solution of the test compound was added to the test compound group, respectively. Ba/F3 Axl was diluted with a medium to have a density of 2×10^5 cells/mL to prepare a cell suspension. In each well of the 96-well plate for measurement, 50 μL each of the RPMI medium was added to the Blank group, and 50 μL each of the cell suspension to the medium group and the test compound group, respectively, and the groups were stood still at 37° C. at 5% CO2 for 48 hours. After standing still, Relative Light Unit (RLU) was measured by using CELLTITER-GLO (registered trademark) LUMINESCENT CELL VIABILITY ASSAY (Promega). The measurement was carried out according to the attached instruction. To each well, 100 μL each of light-emitting solution was added. The plate was stirred at room temperature for 3 min and then stool still at room temperature with light shielded for 10 min, and RLU was measured by using Microplate Reader (SpectraMax M5e, Molecular Devices). The average values of RLU of the Blank group and the medium group were respectively calculated, and the proliferation suppression rate of the test compound group was calculated. Proliferation suppression rate (%)={1−(RLU of test compound group−A)/(B−A)}×100 [Math. 2] A: average value of RLU of Blank group B: average value of RLU of medium group
A value of 50% inhibition rate (IC50 value) of the test compound was calculated from the inhibition curve based on the inhibition rate in each concentration of the test compound.

[2] = target: KDR kinase (Homo sapiens, UniProt P35968); experiment: Evaluation of kinase selectivity (KDR kinase IC50 versus Axl IC50, in vitro test); type: biochemical; conditions: Axl selective inhibitory activity with respect to KDR kinase, ratio of IC50 values
Description: Similar to Biological Example 1, values of 50% inhibition rate (IC50 value) with respect to the KDR kinase of the test compound was measured. The Axl selective inhibitory activity of the test compound with respect to KDR kinase was calculated based on the above-mentioned ratio of the IC50 values. As the test compounds, for the compounds of the present invention, the compounds of Examples 21, 42, 66, and 28 were used, and for the comparative compounds, the compound of Example 74 (Comparative compound B) and the compound of Example 92 (Comparative compound C) described in Patent Literature 5, having the following structure, were used.

Sequence of KDR kinase (P35968 20-1356): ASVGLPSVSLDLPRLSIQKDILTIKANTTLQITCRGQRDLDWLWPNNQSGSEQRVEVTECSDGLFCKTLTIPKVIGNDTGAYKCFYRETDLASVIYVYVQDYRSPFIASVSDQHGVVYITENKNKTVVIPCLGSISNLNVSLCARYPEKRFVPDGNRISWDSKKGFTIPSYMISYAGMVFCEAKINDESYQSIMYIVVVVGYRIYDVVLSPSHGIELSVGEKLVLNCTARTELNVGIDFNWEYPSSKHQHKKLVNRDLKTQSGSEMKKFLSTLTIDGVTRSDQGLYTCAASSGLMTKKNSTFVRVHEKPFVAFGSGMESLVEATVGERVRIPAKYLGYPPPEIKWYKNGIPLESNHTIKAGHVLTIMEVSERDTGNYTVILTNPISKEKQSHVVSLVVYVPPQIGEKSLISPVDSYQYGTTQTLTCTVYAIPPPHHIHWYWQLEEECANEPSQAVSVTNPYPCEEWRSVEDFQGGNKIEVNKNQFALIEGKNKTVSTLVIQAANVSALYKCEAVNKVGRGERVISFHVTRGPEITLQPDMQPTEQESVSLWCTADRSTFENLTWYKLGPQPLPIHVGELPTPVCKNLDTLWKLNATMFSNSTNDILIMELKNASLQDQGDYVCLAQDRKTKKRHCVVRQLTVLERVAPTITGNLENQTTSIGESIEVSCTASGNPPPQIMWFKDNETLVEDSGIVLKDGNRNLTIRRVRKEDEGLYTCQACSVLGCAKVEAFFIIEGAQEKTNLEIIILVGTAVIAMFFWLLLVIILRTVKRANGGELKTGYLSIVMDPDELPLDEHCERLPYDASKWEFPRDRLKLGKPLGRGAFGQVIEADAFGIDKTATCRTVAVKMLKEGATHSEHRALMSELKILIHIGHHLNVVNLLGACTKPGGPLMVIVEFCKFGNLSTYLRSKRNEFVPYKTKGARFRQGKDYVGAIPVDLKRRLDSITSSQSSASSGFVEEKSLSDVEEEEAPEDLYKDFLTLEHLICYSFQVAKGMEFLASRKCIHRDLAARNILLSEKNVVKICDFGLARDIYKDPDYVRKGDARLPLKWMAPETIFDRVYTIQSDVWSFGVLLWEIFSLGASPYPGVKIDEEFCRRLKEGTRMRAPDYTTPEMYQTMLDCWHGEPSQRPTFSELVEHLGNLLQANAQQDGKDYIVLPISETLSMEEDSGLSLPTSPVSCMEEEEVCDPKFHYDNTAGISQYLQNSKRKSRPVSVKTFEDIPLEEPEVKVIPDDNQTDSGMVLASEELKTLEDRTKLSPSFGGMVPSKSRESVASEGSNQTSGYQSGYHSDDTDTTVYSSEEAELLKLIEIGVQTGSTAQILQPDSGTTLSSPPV

SMILES	GI50 [1]	KDR [IC50]/Ax1 [IC50] [2]
COc1cc2nccc(Oc3ccc(NC(=O)c4cc5c(n(-c6ccccc6)c4=O)CCCNC5=O)nc3)c2cc1OC [Example 66, N-{5-[(6,7-dimethoxy-4-quinolinyl)oxy]-2-pyridinyl}-2,5-dioxo-1-phenyl-2,5,6,7,8,9-hexahydro-1H-pyrido[3,2-c]azepine-3-carboxamide]	5.7 nM	about 1401 times
COc1cc2nccc(Oc3ccc(NC(=O)c4cc(C(C)=O)cn(-c5ccccc5)c4=O)nc3)c2cc1OC [Example 21, 5-acetyl-N-{5-[(6,7-dimethoxy-4-quinolinyl)oxy]-2-pyridinyl}-2-oxo-1-phenyl-1,2-dihydro-3-pyridinecarboxamide]	0.96 nM	about 149 times
COc1cc2nccc(Oc3ccc(NC(=O)c4c5c(cn(-c6ccccc6)c4=O)C(=O)CCC5)nc3)c2cc1OC [Example 42, N-{5-[(6,7-dimethoxy-4-quinolinyl)oxy]-2-pyridinyl}-3,8-dioxo-2-phenyl-2,3,5,6,7,8-hexahydro-4-isoquinolinecarboxamide]	4.2 nM	about 2857 times
COc1cc2nccc(Oc3ccc(NC(=O)c4cc5ccncc5n(-c5ccccc5)c4=O)nc3)c2cc1OC [Example 28, N-{5-[(6,7-dimethoxy-4-quinolinyl)oxy]-2-pyridinyl}-2-oxo-1-phenyl-1,2-dihydro-1,7-naphthyridine-3-carboxamide]	0.99 nM	about 294 times
